Measurements reported in patent US9493464B2, “Wee1 degradation inhibitors” (The Scripps Research Institute, priority 2012, dated 2016).
Values joined by “and” are separate entries in the source; they are usually repeats but may differ in a detail not shown here. Equal values may be shown once.

Experiments:
[1] = biological target: T1, LKB1 (Homo sapiens, UniProt Q15831); assay: In vitro kinase assay, LKB1; type: biochemical
T1 construct: Reaction Biology Corporation (inferred: panel performed there)
T1 sequence (Q15831 1-433): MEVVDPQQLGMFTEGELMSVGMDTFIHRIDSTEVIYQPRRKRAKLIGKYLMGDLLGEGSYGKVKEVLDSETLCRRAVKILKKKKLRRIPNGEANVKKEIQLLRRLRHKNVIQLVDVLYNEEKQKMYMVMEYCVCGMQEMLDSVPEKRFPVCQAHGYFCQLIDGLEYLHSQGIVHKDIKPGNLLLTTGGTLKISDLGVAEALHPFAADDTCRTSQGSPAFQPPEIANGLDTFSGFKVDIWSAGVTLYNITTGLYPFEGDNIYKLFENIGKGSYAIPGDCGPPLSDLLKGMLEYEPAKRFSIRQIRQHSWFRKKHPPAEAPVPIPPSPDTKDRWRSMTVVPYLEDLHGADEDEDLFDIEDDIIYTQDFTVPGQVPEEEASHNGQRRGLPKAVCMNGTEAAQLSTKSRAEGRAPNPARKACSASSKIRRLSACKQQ
T1 sequence (Q7RTN6 1-431 partner): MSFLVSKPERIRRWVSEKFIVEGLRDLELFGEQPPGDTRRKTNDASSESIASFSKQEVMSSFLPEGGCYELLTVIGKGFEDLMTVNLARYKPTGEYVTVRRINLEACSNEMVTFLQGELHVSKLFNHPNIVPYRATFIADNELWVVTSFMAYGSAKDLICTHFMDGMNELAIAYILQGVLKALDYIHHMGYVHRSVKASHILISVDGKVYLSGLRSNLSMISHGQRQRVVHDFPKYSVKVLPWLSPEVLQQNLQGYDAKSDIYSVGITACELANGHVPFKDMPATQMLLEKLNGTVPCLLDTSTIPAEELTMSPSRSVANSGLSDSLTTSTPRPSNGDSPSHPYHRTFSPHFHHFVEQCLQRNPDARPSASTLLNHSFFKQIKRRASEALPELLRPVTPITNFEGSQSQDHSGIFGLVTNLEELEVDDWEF
T1 sequence (Q9Y376 1-341 partner): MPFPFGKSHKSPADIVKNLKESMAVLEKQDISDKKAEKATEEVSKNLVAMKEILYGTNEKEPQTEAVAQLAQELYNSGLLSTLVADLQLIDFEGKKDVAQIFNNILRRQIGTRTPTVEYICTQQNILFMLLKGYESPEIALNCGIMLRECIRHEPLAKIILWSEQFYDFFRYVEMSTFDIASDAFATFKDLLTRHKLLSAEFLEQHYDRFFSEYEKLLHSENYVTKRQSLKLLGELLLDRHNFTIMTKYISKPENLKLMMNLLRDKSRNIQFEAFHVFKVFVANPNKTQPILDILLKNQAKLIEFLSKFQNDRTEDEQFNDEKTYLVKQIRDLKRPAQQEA
Protocol: (§1) Compounds were tested in 10-dose IC50 mode with 3-fold serial dilution starting at 50 μM. […] Reactions were carried out at 10 μM ATP. Average and standard deviations of reactions carried out in triplicate are shown.
In vitro kinase assay to detect CK1 or FLT3 activity: CK1 and FLT3 assays as well as complete kinase profile of 296 kinases was performed by Reaction Biology Corporation. For FLT3 20 μM final Abltide was used, sequence: [[…]]. For CK1 (all isoforms) 20 μM CK1 tide was used, sequence: [KRRRAL[pS]VASLPGL] in a standard kinase assay with ^32P-ATP and purified kinase. Incorporation of ^32P-ATP into the peptide was measured after a filter-binding assay. In-house CK1d inhibition assays were performed using a standard homogenous time-resolved fluorescence resonance energy transfer (TR-FRET) format in 50 mM Hepes, pH 7.0, 2.5 mM MgCl2, 0.1 mg/ml bovine serum albumin, 1 mM DL-dithiothreitol, 0.01% Triton X-100 (all from Sigma-Aldrich). […] Assays were performed in the presence of 2 μL of compound at different (measured) concentrations, and reactions were stopped by adding 10 μL of 4 nM Eu-anti-p-Topo-IIa (PerkinElmer) in Lance Detection Buffer (Perkin Elmer). Upon excitation of the Eu-labeled antibody, energy is transferred to the acceptor dye resulting in the emission of detected light at 665 nm.

[2] = biological target: CK1δ (Homo sapiens, UniProt P48730); assay: In vitro kinase assay, CK1d, 32P-ATP filter binding (Reaction Biology Corporation); type: biochemical; conditions: 10 μM ATP; read-out: CK1δ IC50
Chain of CK1δ (P48730 whole entry): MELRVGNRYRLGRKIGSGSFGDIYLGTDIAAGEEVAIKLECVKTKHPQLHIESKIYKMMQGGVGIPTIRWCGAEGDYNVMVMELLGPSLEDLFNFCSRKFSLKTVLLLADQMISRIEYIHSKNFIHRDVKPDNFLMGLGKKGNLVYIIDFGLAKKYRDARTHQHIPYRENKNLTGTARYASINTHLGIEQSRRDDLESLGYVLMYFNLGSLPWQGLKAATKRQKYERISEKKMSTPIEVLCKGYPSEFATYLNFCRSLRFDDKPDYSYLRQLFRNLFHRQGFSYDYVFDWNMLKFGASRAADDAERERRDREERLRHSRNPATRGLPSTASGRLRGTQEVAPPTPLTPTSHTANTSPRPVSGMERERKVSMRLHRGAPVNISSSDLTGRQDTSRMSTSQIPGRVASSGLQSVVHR
Protocol: as §1
In vitro kinase assay to detect CK1 or FLT3 activity: CK1 and FLT3 assays as well as complete kinase profile of 296 kinases was performed by Reaction Biology Corporation. For FLT3 20 μM final Abltide was used, sequence: [[…]]. For CK1 (all isoforms) 20 μM CK1 tide was used, sequence: [KRRRAL[pS]VASLPGL] in a standard kinase assay with ^32P-ATP and purified kinase. Incorporation of ^32P-ATP into the peptide was measured after a filter-binding assay. In-house CK1d inhibition assays were performed using a standard homogenous time-resolved fluorescence resonance energy transfer (TR-FRET) format in 50 mM Hepes, pH 7.0, 2.5 mM MgCl2, 0.1 mg/ml bovine serum albumin, 1 mM DL-dithiothreitol, 0.01% Triton X-100 (all from Sigma-Aldrich). Briefly, the CK1δ substrate (DEKTDDE, containing CK1 consensus sequence; 4 μL of a 500 nM stock solution) is labeled with a small Ulight acceptor dye (PerkinElmer). In the presence of 10 μL of 10 nM CK1δ, the Ulight peptide is phosphorylated at a single amino acid that is specifically recognized by a europium chelate (Eu)-labeled phosphospecific antibody. Assays were performed in the presence of 2 μL of compound at different (measured) concentrations, and reactions were stopped by adding 10 μL of 4 nM Eu-anti-p-Topo-IIa (PerkinElmer) in Lance Detection Buffer (Perkin Elmer). Upon excitation of the Eu-labeled antibody, energy is transferred to the acceptor dye resulting in the emission of detected light at 665 nm.

[3] = tested on: cerebellar granule cell progenitors (GCPs); assay: In vitro proliferation of cerebellar granule cell progenitors (3H-thymidine uptake); type: cell-based, mouse; conditions: 24 hours; result in words
Protocol: GCPs were incubated with DMSO, 5 μM D4476 (known CK1δ and CK1ε inhibitor), or 50 μM D4476 and processed for ^3H-thymidine incorporation after 24 hours. A representative experiment performed in triplicate is shown.

[4] = tested on: GCPs in organotypic cerebellar slices; assay: Organotypic cerebellar slice GCP migration assay; type: cell-based, mice; conditions: 500 nM, 48 hours; result in words
Source text: Cerebella from P7 mice were isolated and sliced using a vibratome. Subsequently, slices were electroporated with venus-GFP to visualize GCPs. […] Many GCPs migrate to the Purkinje cell layer in DMSO treated cells, but fewer do so in SR-653234 or SR-1277 treated slices. […] Phospho-Y15 Cdc2 is a measure of Wee1 activity. Skp-1 is used as a loading control.

| SMILES | activity toward LKB1 ([1]; result in words) | IC50 [2] | inhibition of GCP proliferation (3H-thymidine) [3] | GCP migration to the Purkinje cell layer [4] | IC50 [1] |
| --- | --- | --- | --- | --- | --- |
| O=[N+]([O-])c1cccc2[nH]c(CNc3nc(N4CCOCC4)nc4c3ncn4-c3ccsc3)nc12 [SR-1277] | inactive | 0.049 µM | robust inhibition | fewer do so | – |
| c1ccc2[nH]c(CNc3nc(N4CCOCC4)nc4c3ncn4-c3ccsc3)nc2c1 [SR-653234] | – | 0.161 µM and 0.54 µM | robust inhibition | fewer do so | 0.092 µM |
